Assay results taken from patent publication US20060117399A1, “Animal model for human lymphomas” (Medical University, priority 2004, published 2006).

What was measured:
[1] = system: splenic B cells; test: In vitro lymphocyte survival and apoptosis assays (trypan blue dye exclusion); type: cell-based, mouse; details: for sensitivity of splenic B cells to death stimuli: both wild-type and p80HT splenic B cells, TNF-α 20 ng/ml, Fas ligand 100 ng/ml, doxorubicin 0.5 μg/ml
Description: (§1) C-E: In vitro survival and apoptosis assays of splenic B cells and B lymphoma cells. Cells were either untreated (D) or treated with 0.5 μg/ml of doxorubicin (C) or with 20 μg/ml of LPS (E). Viability was determined by trypan blue dye exclusion assays. Data in (A-E) represent means±SD of cells from 5 mice of each genotype or from 58 lymphomas samples.
(§2) Purified splenic B cells and B lymphoma cells (10^5/well, 96-well plate) were cultured in DMEM supplemented with 10% FBS, 250 μM L-asparagine, and 50 μM 2-mercaptoethanol. Cells were either untreated or treated with recombinant mouse TNF-α (20 ng/ml, Calbiochem), Fas ligand (100 ng/ml, PeoproTech), LPS (20 μg/ml, Sigma), or doxorubicin (0.5 μg/ml, Ben Venue Laboratories), and viable cells were determined daily by trypan blue dye exclusion assays.

[2] = system: B lymphoma cells; test: as above; type: cell-based, mouse; details: B lymphoma cells from p80HT transgenic mice; doxorubicin 0.5 μg/ml
Description: as §1, §2

Row | Molecule | sensitivity of splenic B cells to death stimuli [1] | apoptosis induced by doxorubicin [2] | apoptosis induced by the activation signal (LPS) ([1]; p80HT splenic B cells, LPS 20 μg/ml) | response of splenic B cells to LPS ([1]; splenic B cells generally, LPS 20 μg/ml, after about 3 days of proliferation)
1 | COc1cccc2c1C(=O)c1c(O)c3c(c(O)c1C2=O)C[C@@](O)(C(=O)CO)C[C@@H]3O[C@H]1C[C@H](N)[C@H](O)[C@H](C)O1 [doxorubicin] | equally sensitive | highly resistant |  | 
2 | TNF-a | highly resistant |  |  | 
3 | lipopolysaccharide [LPS] |  |  | highly resistant | extensive apoptosis
4 | Fas ligand: death ligand, 100 ng/ml, PeoproTech (protein, UniProt P48023 130-281, looked up) Tumor necrosis factor ligand …: QIGHPSPPPEKKELRKVAHLTGKSNSRSMPLEWEDTYGIVLLSGVKYKKGGLVINETGLYFVYSKVYFRGQSCNNLPLSHKVYMRNSKYPQDLVMMEGKMMSYCTTGQMWARSSYLGAVFNLTSADHLYVNVSELSLVNFEESQTFFGLYKL | highly resistant |  |  | 
